Common to all, as to test: biochemical
The target in one assay is PI4K2A (PI4K2 alpha) (Homo sapiens, UniProt Q9BTU6). Also noted: SelectScreen Adapta purified lipid kinase panel, 1 uM compound, 10 uM ATP, per cent inhibition. The following applies: ATP=10; Technology=Adapta; 10 uM ATP. On the procedure: (§1) As PI3KC2α is related to other PI3Ks and to PI3K-like protein kinases such as mTOR, the selectivity of PITCOINs was determined in a panel of biochemical assays. […] Finally, the high specificity of PITCOINs for PI3KC2α was verified by Kinobead profiling experiments. In this approach, the ability of PITCOINs to compete the affinity capture of cellular kinases on immobilized nonselective kinase inhibitors (Kinobeads) is analyzed by mass spectrometry (MS)[31]. […] Four nonkinase weak off-targets were globally found for the three inhibitors with only FECH[32] common to the three PITCOINs (Supplementary Dataset).  Extended Data Fig. 2 Lipid kinase inhibitor profile of PITCOIN1-3. (a–c) Selectivity profiling of PITCOIN1-3 (1 µM) with purified lipid kinases in the presence of 10 µM ATP. […] Data are presented as mean ± SD from two independent experiments. (d, e) IC50 measurements of PITCOIN1-3 against purified recombinant class I PI3K p110α/p85α (d) or purified class III PI3K VPS34 complex II (e). 10 µM ATP and 20 µM PIP3 (for p110α/p85α) or 200 µM PI (for VPS34 complex II) were used as substrates. […] Data are presented as mean ± SD from two independent experiments. Source data
PI4K2A (PI4K2 alpha), sequence (Q9BTU6 whole entry): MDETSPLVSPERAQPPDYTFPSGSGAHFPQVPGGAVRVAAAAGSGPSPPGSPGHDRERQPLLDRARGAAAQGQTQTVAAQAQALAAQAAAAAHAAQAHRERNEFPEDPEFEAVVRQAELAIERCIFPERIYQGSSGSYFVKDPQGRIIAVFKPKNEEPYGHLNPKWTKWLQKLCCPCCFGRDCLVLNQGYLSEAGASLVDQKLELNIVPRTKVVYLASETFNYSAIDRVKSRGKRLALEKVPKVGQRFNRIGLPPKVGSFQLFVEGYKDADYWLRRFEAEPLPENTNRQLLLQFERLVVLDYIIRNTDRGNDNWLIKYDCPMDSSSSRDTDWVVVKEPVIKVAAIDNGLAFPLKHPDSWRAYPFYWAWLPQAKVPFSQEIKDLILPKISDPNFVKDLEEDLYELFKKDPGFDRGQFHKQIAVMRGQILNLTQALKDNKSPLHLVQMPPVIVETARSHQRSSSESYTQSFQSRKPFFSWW

For the next assay, the target named is PI4K2B (PI4K2 beta) (Homo sapiens, UniProt Q8TCG2). Also noted: SelectScreen Adapta purified lipid kinase panel, 1 uM compound, 10 uM ATP, per cent inhibition. The conditions noted are these: ATP=10; Technology=Adapta; 10 uM ATP. On the procedure:
as §1

The target of another assay is PI4KA (PI4K alpha) (Homo sapiens, UniProt P42356). Also noted: SelectScreen Adapta purified lipid kinase panel, 1 uM compound, 10 uM ATP, per cent inhibition. The following applies: ATP=10; Technology=Adapta; 10 uM ATP. On the procedure:
as §1

Another assay addresses PI4KB (PI4K beta) (Homo sapiens, UniProt Q9UBF8). Also noted: SelectScreen Adapta purified lipid kinase panel, 1 uM compound, 10 uM ATP, per cent inhibition. The conditions noted are these: ATP=10; Technology=Adapta; 10 uM ATP. On the procedure:
as §1

The next assay addresses PIK3C2B (PI3K-C2 beta) (Homo sapiens, UniProt O00750). Also noted: SelectScreen Adapta purified lipid kinase panel, 1 uM compound, 10 uM ATP, per cent inhibition. The conditions noted are these: ATP=10; Technology=Adapta; 10 uM ATP. On the procedure:
as §1

Another assay deals with PIK3C3 (hVPS34) (Homo sapiens, UniProt Q8NEB9). Also noted: SelectScreen Adapta purified lipid kinase panel, 1 uM compound, 10 uM ATP, per cent inhibition. The following applies: ATP=10; Technology=Adapta; 10 uM ATP. On the procedure: as §1
PIK3C3 (hVPS34), sequence (Q8NEB9 whole entry): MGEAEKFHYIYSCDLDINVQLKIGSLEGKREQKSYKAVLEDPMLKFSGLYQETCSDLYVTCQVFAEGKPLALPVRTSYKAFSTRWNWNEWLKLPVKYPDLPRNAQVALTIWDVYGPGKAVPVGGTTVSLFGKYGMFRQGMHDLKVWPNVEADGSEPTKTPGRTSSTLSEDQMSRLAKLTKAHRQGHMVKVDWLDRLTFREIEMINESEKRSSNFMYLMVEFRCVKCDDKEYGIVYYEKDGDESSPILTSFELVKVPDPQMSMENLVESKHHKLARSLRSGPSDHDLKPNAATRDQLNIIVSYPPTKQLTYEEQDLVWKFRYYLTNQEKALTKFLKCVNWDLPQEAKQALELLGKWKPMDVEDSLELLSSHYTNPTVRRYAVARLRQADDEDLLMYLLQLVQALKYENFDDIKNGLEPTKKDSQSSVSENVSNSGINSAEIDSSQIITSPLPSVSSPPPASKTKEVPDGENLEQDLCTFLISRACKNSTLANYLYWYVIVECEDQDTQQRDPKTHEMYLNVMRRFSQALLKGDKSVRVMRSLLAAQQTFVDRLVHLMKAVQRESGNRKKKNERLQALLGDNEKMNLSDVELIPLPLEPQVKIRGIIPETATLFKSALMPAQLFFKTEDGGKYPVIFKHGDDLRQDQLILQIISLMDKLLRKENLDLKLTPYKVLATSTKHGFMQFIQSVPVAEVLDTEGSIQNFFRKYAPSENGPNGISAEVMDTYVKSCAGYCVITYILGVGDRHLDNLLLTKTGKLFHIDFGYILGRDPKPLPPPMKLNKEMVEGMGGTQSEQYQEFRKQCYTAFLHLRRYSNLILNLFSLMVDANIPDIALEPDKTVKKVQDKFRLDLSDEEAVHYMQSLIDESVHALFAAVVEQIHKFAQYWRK
Assay [1] addresses PIK3CA E542K/PIK3R1 (p110 alpha E542K/p85 alpha) (Homo sapiens, UniProt P42336, E542K). Also noted: SelectScreen Adapta purified lipid kinase panel, 1 uM compound, 10 uM ATP, per cent inhibition. The following applies: ATP=10; Technology=Adapta; 10 uM ATP. The protocol: as §1
Assay [2] has as its target PIK3CA/PIK3R1 (p110 alpha/p85 alpha) (Homo sapiens, UniProt P42336). Also noted: SelectScreen Adapta purified lipid kinase panel, 1 uM compound, 10 uM ATP, per cent inhibition. The conditions noted are these: ATP=10; Technology=Adapta; 10 uM ATP. On the procedure: as §1
The target in assay [3] is PIK3CA/PIK3R3 (p110 alpha/p55 gamma) (Homo sapiens, UniProt P42336). Also noted: SelectScreen Adapta purified lipid kinase panel, 1 uM compound, 10 uM ATP, per cent inhibition. The following applies: ATP=10; Technology=Adapta; 10 uM ATP. On the procedure: as §1
Assay [4] has as its target PIK3CB/PIK3R1 (p110 beta/p85 alpha) (Homo sapiens, UniProt P42338). Also noted: SelectScreen Adapta purified lipid kinase panel, 1 uM compound, 10 uM ATP, per cent inhibition. The following applies: ATP=10; Technology=Adapta; 10 uM ATP. On the procedure: as §1
The target of assay [5] is PIK3CB/PIK3R2 (p110 beta/p85 beta) (Homo sapiens, UniProt P42338). Also noted: SelectScreen Adapta purified lipid kinase panel, 1 uM compound, 10 uM ATP, per cent inhibition. The conditions noted are these: ATP=10; Technology=Adapta; 10 uM ATP. The protocol: as §1
Another assay concerns the target PIK3CG (p110 gamma) (Homo sapiens, UniProt P48736). Also noted: SelectScreen Adapta purified lipid kinase panel, 1 uM compound, 10 uM ATP, per cent inhibition. The following applies: ATP=10; Technology=Adapta; 10 uM ATP. The protocol:
as §1

The target in a further assay is PIP5K1A (Homo sapiens, UniProt Q99755). Also noted: SelectScreen Adapta purified lipid kinase panel, 1 uM compound, 10 uM ATP, per cent inhibition. The following applies: ATP=10; Technology=Adapta; 10 uM ATP. On the procedure:
as §1

The next assay deals with T1, SPHK2 (Homo sapiens, UniProt Q9NRA0).
T1 sequence (Q9NRA0 1-654): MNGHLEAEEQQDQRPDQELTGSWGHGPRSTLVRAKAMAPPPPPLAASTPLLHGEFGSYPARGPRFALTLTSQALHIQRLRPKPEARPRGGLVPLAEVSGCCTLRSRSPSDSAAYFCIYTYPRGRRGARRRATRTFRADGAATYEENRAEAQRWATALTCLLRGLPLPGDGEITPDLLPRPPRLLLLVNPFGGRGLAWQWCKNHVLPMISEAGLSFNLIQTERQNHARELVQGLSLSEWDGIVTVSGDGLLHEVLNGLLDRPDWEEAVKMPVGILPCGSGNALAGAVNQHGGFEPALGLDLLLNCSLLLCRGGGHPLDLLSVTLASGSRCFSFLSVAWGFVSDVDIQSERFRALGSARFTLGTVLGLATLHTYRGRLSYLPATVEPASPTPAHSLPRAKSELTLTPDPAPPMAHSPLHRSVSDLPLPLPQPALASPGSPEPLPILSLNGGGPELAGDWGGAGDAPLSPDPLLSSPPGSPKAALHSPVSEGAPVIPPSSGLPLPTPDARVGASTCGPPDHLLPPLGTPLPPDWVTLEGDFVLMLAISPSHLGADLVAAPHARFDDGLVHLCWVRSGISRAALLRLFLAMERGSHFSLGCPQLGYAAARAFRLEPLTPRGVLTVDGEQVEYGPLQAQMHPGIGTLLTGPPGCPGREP
Also noted: SelectScreen Adapta purified lipid kinase panel, 1 uM compound, 10 uM ATP, per cent inhibition. The following applies: ATP=10; Technology=Adapta; 10 uM ATP. On the procedure: as §1

Another assay deals with FRAP1 (mTOR) (Homo sapiens, UniProt P42345). Also noted: SelectScreen Z'-LYTE mTOR kinase assay, 1 uM compound, 10 uM ATP, per cent inhibition. The conditions noted are these: ATP=10; Technology=ZLYTE; 10 uM ATP. The protocol:
as §1

PIK3CG (p110 gamma), sequence (P48736 whole entry): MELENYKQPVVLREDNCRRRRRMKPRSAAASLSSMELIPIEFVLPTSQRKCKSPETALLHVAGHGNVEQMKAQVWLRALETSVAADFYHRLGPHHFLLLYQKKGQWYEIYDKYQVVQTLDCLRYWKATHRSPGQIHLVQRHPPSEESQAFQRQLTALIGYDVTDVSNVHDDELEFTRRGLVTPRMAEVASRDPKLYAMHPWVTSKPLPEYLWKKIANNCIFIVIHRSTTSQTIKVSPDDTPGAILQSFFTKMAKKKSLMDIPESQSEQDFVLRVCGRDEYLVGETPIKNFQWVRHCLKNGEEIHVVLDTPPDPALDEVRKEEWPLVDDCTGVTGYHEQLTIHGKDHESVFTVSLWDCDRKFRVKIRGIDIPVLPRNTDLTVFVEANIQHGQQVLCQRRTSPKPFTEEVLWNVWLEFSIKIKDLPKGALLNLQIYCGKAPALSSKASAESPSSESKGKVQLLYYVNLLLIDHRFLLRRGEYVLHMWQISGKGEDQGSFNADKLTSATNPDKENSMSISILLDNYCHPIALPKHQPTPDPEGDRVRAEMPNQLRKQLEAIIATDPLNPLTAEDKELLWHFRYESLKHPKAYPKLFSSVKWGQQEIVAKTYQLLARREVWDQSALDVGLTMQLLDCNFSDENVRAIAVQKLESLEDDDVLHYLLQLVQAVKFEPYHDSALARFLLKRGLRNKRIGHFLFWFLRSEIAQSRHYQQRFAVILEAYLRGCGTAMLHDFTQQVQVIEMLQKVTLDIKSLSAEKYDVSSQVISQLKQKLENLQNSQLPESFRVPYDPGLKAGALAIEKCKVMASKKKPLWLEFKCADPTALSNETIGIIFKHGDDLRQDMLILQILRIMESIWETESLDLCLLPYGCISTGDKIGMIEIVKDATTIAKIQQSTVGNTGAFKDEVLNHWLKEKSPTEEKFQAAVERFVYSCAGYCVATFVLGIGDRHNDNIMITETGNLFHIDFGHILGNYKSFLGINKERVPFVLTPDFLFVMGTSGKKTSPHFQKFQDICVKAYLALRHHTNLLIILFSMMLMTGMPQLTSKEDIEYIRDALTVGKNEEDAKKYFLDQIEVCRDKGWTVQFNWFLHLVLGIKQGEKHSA
PI4KA (PI4K alpha), sequence (P42356 whole entry): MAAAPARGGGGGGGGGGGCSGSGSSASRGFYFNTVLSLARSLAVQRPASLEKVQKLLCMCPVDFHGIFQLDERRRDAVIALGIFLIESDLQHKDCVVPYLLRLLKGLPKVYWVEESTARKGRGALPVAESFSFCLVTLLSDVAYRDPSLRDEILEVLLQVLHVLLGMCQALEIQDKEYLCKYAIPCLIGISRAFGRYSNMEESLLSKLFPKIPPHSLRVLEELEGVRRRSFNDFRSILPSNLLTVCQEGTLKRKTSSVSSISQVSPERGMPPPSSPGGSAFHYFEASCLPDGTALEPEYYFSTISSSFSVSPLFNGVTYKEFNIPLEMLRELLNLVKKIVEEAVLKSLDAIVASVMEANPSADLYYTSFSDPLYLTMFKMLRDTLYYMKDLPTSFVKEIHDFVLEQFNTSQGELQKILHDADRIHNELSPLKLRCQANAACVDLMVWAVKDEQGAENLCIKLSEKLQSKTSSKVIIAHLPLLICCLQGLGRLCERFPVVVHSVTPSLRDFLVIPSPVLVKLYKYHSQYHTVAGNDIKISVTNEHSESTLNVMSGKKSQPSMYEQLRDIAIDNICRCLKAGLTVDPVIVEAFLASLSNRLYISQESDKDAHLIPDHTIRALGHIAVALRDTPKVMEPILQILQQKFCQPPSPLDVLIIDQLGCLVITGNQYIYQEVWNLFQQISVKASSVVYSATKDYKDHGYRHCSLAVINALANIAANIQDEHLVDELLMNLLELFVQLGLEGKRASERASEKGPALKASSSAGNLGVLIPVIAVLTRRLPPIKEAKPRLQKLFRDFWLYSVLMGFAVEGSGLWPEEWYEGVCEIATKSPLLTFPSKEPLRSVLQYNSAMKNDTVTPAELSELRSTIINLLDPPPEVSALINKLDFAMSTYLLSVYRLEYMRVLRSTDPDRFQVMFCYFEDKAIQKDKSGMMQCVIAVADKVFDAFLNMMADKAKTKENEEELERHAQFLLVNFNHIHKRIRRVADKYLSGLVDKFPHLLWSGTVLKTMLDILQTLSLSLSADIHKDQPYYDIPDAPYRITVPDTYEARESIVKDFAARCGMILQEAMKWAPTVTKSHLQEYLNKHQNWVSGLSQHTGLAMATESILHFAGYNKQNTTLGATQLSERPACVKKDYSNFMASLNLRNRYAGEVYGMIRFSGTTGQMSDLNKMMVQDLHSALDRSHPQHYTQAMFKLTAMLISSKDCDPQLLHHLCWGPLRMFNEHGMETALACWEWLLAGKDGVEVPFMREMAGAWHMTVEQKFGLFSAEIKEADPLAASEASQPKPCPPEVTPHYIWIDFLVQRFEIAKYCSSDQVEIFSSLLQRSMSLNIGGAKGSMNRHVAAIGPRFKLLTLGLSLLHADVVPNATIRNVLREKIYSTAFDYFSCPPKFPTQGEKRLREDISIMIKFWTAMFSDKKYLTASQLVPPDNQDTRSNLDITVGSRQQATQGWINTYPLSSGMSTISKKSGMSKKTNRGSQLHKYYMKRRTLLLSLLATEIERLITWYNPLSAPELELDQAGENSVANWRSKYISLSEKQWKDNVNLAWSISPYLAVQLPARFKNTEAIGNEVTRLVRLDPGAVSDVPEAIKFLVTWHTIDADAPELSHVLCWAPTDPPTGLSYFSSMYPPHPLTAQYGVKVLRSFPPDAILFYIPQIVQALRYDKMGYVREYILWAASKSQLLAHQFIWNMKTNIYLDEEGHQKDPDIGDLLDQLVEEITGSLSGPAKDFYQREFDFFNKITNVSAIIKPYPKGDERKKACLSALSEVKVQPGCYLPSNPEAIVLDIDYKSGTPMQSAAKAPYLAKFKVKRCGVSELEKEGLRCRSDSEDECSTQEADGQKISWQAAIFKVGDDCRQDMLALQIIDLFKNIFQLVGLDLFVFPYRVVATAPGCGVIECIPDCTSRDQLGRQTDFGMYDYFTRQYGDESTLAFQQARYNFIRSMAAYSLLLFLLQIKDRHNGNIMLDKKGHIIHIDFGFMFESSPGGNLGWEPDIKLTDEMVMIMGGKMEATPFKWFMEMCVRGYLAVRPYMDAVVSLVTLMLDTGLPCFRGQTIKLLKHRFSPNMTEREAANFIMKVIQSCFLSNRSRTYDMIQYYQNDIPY
PI4K2B (PI4K2 beta), sequence (Q8TCG2 whole entry): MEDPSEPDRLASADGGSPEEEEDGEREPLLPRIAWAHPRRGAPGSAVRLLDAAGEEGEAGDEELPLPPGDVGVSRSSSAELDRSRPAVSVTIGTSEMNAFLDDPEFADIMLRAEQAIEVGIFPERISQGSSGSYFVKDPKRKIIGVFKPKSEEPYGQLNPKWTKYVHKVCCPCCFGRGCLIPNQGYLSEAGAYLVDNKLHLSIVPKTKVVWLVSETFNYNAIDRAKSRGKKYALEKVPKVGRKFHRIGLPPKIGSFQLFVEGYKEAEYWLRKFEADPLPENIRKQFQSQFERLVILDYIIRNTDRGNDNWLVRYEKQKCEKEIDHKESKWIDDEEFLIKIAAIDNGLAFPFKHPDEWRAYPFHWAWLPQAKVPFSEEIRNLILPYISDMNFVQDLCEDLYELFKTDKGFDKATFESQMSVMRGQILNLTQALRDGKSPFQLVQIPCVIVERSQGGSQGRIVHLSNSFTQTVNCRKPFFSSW

For `O=C(CSc1nc2nccnc2c(=O)n1CCc1ccccc1)Nc1nccs1` [compound 1, PITCOIN1], the inhibition at 1 µM was 8% on PI4K2A (PI4K2 alpha); 4% on PI4K2B (PI4K2 beta); 1% against PI4KA (PI4K alpha); 4% against PI4KB (PI4K beta); 12% on PIK3C2B (PI3K-C2 beta); -14% against PIK3C3 (hVPS34). The inhibition at 1 µM in assay [1] was 5%; in assay [2] it was 5%; in assay [3], -6%; in [4] it was 10%; in assay [5], 3%; against PIK3CG (p110 gamma), 20%. Further, the inhibition at 1 µM against PIP5K1A is 4%; against SPHK2, 9%; on FRAP1 (mTOR), 8%.

For `O=C(CSc1nc2nccnc2c(=O)n1CCc1ccccc1)Nc1nc(-c2cccc(O)c2)cs1` [compound 2, PITCOIN2], the inhibition at 1 µM is 4% against PI4K2A (PI4K2 alpha); -5% at PI4K2B (PI4K2 beta); -9% against PI4KA (PI4K alpha); 3% at PI4KB (PI4K beta); 40% on PIK3C2B (PI3K-C2 beta); 7% at PIK3C3 (hVPS34). Moreover, the inhibition at 1 µM in assay [1] was 9%; in assay [2] it was -1%; in assay [3], -10%; in assay [4], 13%; in assay [5], -2%; against PIK3CG (p110 gamma), 16%. The inhibition at 1 µM was -6% on PIP5K1A, -1% against SPHK2 and 5% against FRAP1 (mTOR).

`CS(=O)(=O)Nc1cccc(-c2csc(NC(=O)CSc3nc4nccnc4c(=O)n3CCc3ccccc3)n2)c1` [compound 3, PITCOIN3]: the inhibition at 1 µM against PI4K2A (PI4K2 alpha) came to 1%; on PI4K2B (PI4K2 beta) it was 8%; against PI4KA (PI4K alpha), 5%; at PI4KB (PI4K beta), 13%; on PIK3C2B (PI3K-C2 beta), 9%; against PIK3C3 (hVPS34) it was 2%. Also, the inhibition at 1 µM worked out at 14% in assay [1]; 17% in assay [2]; 5% in assay [3]; 12% in [4]; 7% in assay [5]; 9% against PIK3CG (p110 gamma). The results for the inhibition at 1 µM against PIP5K1A, against SPHK2 and against FRAP1 (mTOR) were -7%, -5% and 4%, respectively.
